Source: US6888015B2, “Sphingolipid synthesis inhibitor” (Japan Science and Technology Agency, priority 2001, dated 2005)

Test system: transport of Cer from the ER to the Golgi apparatus
Assay: Intracellular redistribution and metabolism of C5-DMB-Cer
Type: cell-based, Chinese hamster
Method: After CHO cells seeded in 60-mm dishes are cultured overnight, said CHO cells are labeled with 1 μM C5-DMB-Cer in 1.5 mL of Nutridoma medium at 4° C. for 30 minutes. Then, after obtained said cells are washed 3 times with F12 medium, said cells are incubated in Nutridoma medium in the presence or absence of 2.5 μM HPA-12 for 15 minutes at 4° C., and then further incubated at 33° C. for various periods of time.
After washed with PBS, the chased cells are lysed with 0.1% SDS as mentioned above. The lipids extracted from cell lysate are separated by high performance TLC with a solvent of chloroform/methanol/H2O (volume ratio, 65:25:4). Quantitative measurement of C5-DMB-SM and C5-DMB-Cer are performed by scraping gel from TLC plates, extracting by chloroform/methanol/H2O (volume ratio, 1:2:0.8), and by measuring DMB fluorescence (excitation wave length 480 nm, emission wave length 515 nm) of the extracted product.
After CHO cells grown on the glass coverslip (22-mm diameter) in 35 mm dishes are incubated in F12 medium containing 1 μM C5-DMB-Cer at 4[…] for 30 minutes for pulse label, washed three times with 1 mL of F12 medium, and incubated in 1 mL of Nutridoma medium in the presence or absence of 2.5 μM HPA-12 at 4° C. for 15 minutes. Then, the pulse-labeled cells are incubated at 33° C. for 15 minutes for chase, washed with PBS containing 0.125% glutaraldehyde at 4° C. for 5 minutes. […]

## CCCCCCCCCCCC(=O)NC(CO)CC(O)c1ccccc1 (centres unmarked) [HPA-12, N-(3-hydroxy-1-hydroxymethyl-3-phenylprol)dodecaneamide]
2.5 μM, chase at 33° C. for 15 minutes
  accumulation of DMB-fluorescence to the perinuclear Golgi region vs untreated control: clearly lower
HPA-12 treated cells, data not shown
  inhibition of conversion of C5-DMB-Cer to C5-DMB-SM: 50%
